In paper PMC9945182 (Chemical Research in Toxicology, 2023):
Like-named read-outs stand apart in the source and are kept apart here.

Legend:
[1] = target: T1, FMO1 (Homo sapiens, UniProt Q01740); type: biochemical; details: 1 or 10 μM cannabinoid; nicotine 1 mM; FMO1 microsomes
T1 sequence (Q01740 1-532): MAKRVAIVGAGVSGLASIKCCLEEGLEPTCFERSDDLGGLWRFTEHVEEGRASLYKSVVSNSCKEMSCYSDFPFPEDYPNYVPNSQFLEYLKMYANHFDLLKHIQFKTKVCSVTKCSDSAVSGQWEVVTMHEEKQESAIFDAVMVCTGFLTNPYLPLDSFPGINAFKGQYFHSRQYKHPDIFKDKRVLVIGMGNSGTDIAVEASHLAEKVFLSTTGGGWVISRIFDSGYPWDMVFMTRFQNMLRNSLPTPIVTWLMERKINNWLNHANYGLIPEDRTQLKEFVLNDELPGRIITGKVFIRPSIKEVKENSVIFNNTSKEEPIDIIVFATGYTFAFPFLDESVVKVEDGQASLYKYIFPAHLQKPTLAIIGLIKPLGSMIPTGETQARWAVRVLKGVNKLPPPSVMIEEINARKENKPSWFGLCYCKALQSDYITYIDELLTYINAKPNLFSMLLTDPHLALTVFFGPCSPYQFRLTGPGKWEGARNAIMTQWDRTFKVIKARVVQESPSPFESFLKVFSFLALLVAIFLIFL

[2] = target: T2, FMO3 (Homo sapiens, UniProt P31513); type: biochemical; details: 1 or 10 μM cannabinoid; nicotine 1 mM; FMO3 microsomes
T2 sequence (P31513 1-532): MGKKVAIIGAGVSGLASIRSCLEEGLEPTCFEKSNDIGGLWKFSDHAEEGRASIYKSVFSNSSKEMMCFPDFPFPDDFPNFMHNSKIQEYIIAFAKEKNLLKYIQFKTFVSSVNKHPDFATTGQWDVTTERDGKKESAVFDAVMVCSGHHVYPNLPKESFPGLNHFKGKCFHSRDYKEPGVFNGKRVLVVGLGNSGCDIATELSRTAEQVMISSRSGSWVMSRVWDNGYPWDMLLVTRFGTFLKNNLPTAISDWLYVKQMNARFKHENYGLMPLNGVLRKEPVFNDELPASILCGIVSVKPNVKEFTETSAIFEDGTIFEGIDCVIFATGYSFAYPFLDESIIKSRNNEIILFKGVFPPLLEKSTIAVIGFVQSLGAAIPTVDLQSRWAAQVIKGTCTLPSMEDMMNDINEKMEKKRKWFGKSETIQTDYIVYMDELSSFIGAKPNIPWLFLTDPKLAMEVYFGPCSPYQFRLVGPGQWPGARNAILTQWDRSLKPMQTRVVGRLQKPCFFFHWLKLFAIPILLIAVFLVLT

[3] = target: T3, UGT1A4 (Homo sapiens, UniProt P22310); type: biochemical; details: UGT1A4 microsomes; nicotine or cotinine as substrate; screening
T3 sequence (P22310 29-534): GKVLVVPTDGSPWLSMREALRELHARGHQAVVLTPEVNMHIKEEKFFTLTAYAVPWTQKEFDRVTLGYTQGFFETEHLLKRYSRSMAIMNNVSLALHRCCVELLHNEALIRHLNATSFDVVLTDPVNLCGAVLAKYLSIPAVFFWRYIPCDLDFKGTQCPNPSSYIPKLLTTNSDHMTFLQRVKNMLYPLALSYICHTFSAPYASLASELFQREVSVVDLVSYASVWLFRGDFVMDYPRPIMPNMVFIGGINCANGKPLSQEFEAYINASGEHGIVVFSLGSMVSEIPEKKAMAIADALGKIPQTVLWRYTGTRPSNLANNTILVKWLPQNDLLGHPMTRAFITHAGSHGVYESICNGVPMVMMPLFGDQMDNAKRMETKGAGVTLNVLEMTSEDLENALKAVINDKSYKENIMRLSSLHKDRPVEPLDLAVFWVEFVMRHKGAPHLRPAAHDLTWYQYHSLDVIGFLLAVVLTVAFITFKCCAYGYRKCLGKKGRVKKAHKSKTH

[4] = target: T4, CYP2A6 (Homo sapiens, UniProt P11509); type: biochemical; details: for decrease of 3HC formation: cotinine substrate, CYP2A6 microsomes; for IC50: cotinine 100 μM, rec CYP2A6 microsomes
T4 sequence (P11509 1-494): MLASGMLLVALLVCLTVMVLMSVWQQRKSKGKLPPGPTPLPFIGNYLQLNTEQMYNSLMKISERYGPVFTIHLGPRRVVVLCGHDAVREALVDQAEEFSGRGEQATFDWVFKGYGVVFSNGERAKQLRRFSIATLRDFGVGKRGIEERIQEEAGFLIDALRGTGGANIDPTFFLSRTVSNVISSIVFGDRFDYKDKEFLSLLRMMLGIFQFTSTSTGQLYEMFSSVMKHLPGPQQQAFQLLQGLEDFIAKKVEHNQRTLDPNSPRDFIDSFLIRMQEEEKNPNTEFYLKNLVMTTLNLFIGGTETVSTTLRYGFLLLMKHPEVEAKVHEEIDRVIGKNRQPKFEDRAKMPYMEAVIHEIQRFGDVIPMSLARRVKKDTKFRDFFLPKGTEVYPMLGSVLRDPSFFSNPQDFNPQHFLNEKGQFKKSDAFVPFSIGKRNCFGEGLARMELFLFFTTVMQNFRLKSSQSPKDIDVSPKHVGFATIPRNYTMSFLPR

[5] = cited from earlier work; for physiological levels in the plasma corrected for plasma protein binding: after a single clinical dose of CBD
[6] = test system: human liver microsomes (HLM); test: Inhibition of cotinine to 3HC formation in pooled human liver microsomes; type: biochemical; details: cotinine 900 μM
[7] = test system: human liver microsomes (HLM); test: Inhibition of nicotine to cotinine formation in pooled human liver microsomes; type: biochemical; details: nicotine 500 μM
[8] = test system: human liver microsomes (HLM); test: Inhibition of nicotine to nornicotine formation in pooled human liver microsomes; type: biochemical; details: nicotine 500 μM
[9] = single dose regimen of Epidiolex (6000 mg)

SMILES | inhibitory effect on NOX formation [1] | inhibitory effect on NOX formation [2] | inhibition of nicotine-Gluc or cotinine-Gluc formation [3] | decrease of 3HC formation ([4]; 1 μM inhibitor) [%] | decrease of 3HC formation ([4]; 10 μM inhibitor) [%] | IC50 ([4]; IC50, 3HC formation) [µM] | IC50 ([4]; IC50,u (binding-corrected IC50), 3HC formation, IC50 × fu,inc) [µM] | physiological levels in the plasma corrected for plasma protein binding [5] | Cmax ([5]; read-out: plasma Cmax (maximum concentration), total, single dose regimen of Epidiolex (6000 mg)) [nM] | calculated unbound plasma Cmax [5, 9] [nM] | IC50 [6] [µM] | IC50 [7] [µM] | IC50 [8] [µM] | IC50 ([4]; 3HC formation) [µM] | IC50 ([4]; read-out: IC50,u (binding-corrected IC50), 3HC formation, IC50 × fu,inc) [µM]
C=C(C)[C@@H]1CCC(C)=C[C@H]1c1c(O)cc(CCCCC)cc1O [CBD, cannabidiol] | No inhibitory effect | No inhibitory effect | no significant inhibition | 55 | 60 | 3.4 ± 2.3 | 0.21 ± 0.14 | 0.06–0.15 μM | 2500 | 75 | 8.8 ± 1.3 | 10 ± 2.9 | 5.1 ± 1.1 | – | –
C=C(C)[C@@H]1CCC(CO)=C[C@H]1c1c(O)cc(CCCCC)cc1O [7-OH-CBD, 7-hydroxy-cannabidiol] | No inhibitory effect | No inhibitory effect | no significant inhibition | 45 | 65 | – | – | 0.04–0.09 μM | – | 93.6 | 9.1 ± 3.4 | 21 ± 5.2 | 7.9 ± 2.5 | 10 ± 3 | 0.78 ± 0.23
